Experimental findings from paper PMC5047629, “Synthesis, Pharmacological Profile and Docking Studies of New Sulfonamides Designed as Phosphodiesterase-4 Inhibitors” (PLoS ONE, 2016) are described below.

Series [1] relates to A/J mice. Briefly: Murine model of asthma with 4 weekly OVA provocations (days 14, 21, 28, 35), interventional treatment. The note with it: LASSBio-448 100 mg/Kg oral. In kind it is in vivo. Here is the method:
Sensitization was performed by means of a subcutaneous injection of 50 μg ovalbumin (OVA) (grade V; Sigma-Aldrich, St. Louis, MO) adsorbed to 5 mg of Al(OH)3 in 0.2 mL of sterile 0.9% NaCl (saline) at days 0 and 14. Intranasal OVA provocations (25 μg /25 μL saline) were performed at 19 and 20 days post-sensitization under isofluorane volatile anaesthesia (Cristalia, São Paulo, Brazil). Alternatively, sensitization as described above were done at days 0 and 7, while the OVA provocations were carried out at days 14, 21, 28 and 35 [39]. Negative control groups were represented by sensitized mice in which allergen was replaced by saline as a challenge. Treatments were done orally 1 h before provocations. Test compounds were dissolved in saline containing 0.2% Tween 80. All solutions were freshly prepared immediately before use. Analyses were performed 24 h after the last provocation.
(§1) Airflow and transpulmonary pressure were recorded with a Buxco pulmonary mechanics processing system (Buxco Electronics, Sharon, CT), which calculated resistance (cmH2O.s/ml) and dynamic lung compliance (mL/cmH2O) in each breath cycle. Elastance was calculated as the inverse of compliance values. Mice were anesthetized with nembutal (60 mg/kg), and the neuromuscular activity was blocked with bromide pancuronium (1 mg/kg). Animals were allowed to stabilize for 5 min and increasing concentrations of methacholine (3–27 mg/mL) were aerosolized for 5 min each. Baseline pulmonary parameters were assessed with aerosolized phosphate buffer solution (PBS).
The EPO activity present in lung tissue was determined with a colorimetric assay as described by Strath et al. (1985), with minor modifications. Briefly, the lungs were cannulated and perfused with saline/EDTA (20 mM). Then, lung samples were homogenized in buffer solution containing 0.5% HBSS (Hank´s balanced solution, pH 7.4; Sigma Chemical Co.) using a tissue homogenizer (T25 ultra-Tirrax). Samples were centrifuged at 1300 xg for 10 min at 4°C. Red blood cells were removed by hypotonic and hypertonic lysis. The suspended cells were then centrifuged again at 1300 xg for 10 min at 4°C. The pellet was then suspended in a solution of HBSS containing 0.5% of HTAB (hexadecyltrimethylamonium bromide; Sigma Chemical Co.) (pH 7.4). This suspension was subjected to heat shock for lysing the cells in three cycles freeze/thawed. At the end, the supernatants were collected, centrifuged at 12000 rpm for 15 min at 4°C and assayed spectrophotometrically for EPO determination. Fifty μl of the samples were placed, and then 50 μl of the substrate (1.5 mM o-phenylenediamine and 6.6 mM hydrogen peroxide in 0.05 mM Tris-HCl buffer, pH 8.0) was added and, after a 30 min incubation at room temperature, 50 μl of H2SO4 (4M) was added to stop the reaction. The optical density reading was performed on the SpectraMax M5 spectrophotometer (Molecular Devices) at a wavelength of 492 nm.
Right lungs tissue samples from saline- and OVA-exposed mice were homogenized in PBS containing 0.05% Triton X-100 and a protease inhibitor cocktail (Complete®, Hoffmann-La Roche Ltd, Basel, Switzerland). After centrifugation at 13000xg for 10 min and 4°C, the levels of IL-13, IL-5, IL-4 and eotaxin-2 were quantified in the supernatant, using commercially available ELISA kits (DuoSet; R&D Systems, Minneapolis, MN, USA). The results were expressed as picograms of cytokine per right lung.

Series [2] deals with A/J mice. Briefly: Duration of xylazine/ketamine anesthesia (behavioral correlate of emesis). In kind it is in vivo. On the procedure: This assessment was carried out as previously reported. […] The animals were placed in dorsal position and their spontaneous return to the prone position was used as an endpoint to determine anesthesia duration.
Series [3] has as its target T1, PDE4A (Homo sapiens, UniProt P27815).
T1 construct: purchased MDS PHARMA
Briefly: PDE4A inhibition, IMAP fluorescence polarization protocol. Type of series: biochemical. The settings on record: 1 μM; mean ± SEM, 3 experiments. On the procedure: (§2) The enzymatic reactions were carried at room temperature in a 96-well black plate by co-incubating 25 μL of 200 nM FAM-cAMP (R7513), 5 μL of putative inhibitory compounds and 20 μL of the PDE4 isoform dissolved in assay buffer (R7364) for 1 h. All enzymes were obtained from human recombinant sources (MDS PHARMA), whereas the other reagents were purchased from Molecular Devices. […] PDE4 inhibitors were dissolved in dimethyl sulfoxide (DMSO) at a final concentration of 0.1%.
(§3) The inhibitory activities of the new sulfonamide derivatives were evaluated for their selectivity against the four isoforms of human PDE4, i.e. PDE4A, PDE4B, PDE4C, and PDE4D, using an IMAP-FP protocol.
A general note: Fluorescence polarisation rises when a labelled molecule tumbles more slowly, as on binding a larger partner.

Series [4] has as its target T2, PDE4B (Homo sapiens, UniProt Q07343).
T2 construct: purchased MDS PHARMA
Briefly: PDE4B inhibition, IMAP fluorescence polarization protocol. In kind it is biochemical. The settings on record: 1 μM, mean ± SEM, 3 experiments. On the procedure:
as §2, §3

In series [5] the target is T3, PDE4C (Homo sapiens, UniProt Q08493).
T3 construct: purchased MDS PHARMA
T3 sequence (Q08493 whole entry): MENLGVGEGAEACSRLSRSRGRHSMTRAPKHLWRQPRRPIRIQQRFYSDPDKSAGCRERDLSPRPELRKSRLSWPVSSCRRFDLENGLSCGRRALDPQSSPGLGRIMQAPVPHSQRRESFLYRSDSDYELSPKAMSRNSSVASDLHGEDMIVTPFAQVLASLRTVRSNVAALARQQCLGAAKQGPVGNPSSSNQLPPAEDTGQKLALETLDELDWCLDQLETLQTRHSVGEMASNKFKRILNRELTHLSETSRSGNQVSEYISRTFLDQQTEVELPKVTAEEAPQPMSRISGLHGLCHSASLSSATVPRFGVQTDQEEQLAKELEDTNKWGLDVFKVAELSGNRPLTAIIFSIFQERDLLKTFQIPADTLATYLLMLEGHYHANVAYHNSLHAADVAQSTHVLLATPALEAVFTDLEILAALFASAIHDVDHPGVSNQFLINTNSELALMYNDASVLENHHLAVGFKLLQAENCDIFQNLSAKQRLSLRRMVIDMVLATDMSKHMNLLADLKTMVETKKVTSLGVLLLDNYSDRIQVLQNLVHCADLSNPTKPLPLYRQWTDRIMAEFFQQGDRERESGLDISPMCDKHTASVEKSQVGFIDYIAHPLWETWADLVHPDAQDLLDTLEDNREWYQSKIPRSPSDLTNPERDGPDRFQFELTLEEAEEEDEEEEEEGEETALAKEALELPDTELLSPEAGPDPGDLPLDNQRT
Briefly: PDE4C inhibition, IMAP fluorescence polarization protocol. The settings on record: 1 μM; mean ± SEM, 3 experiments. In kind it is biochemical. Here is the method: as §2, §3

Series [6] deals with T4, PDE4D (Homo sapiens, UniProt Q08499).
T4 construct: purchased MDS PHARMA
T4 sequence (Q08499 1-673 isoform Q08499-2): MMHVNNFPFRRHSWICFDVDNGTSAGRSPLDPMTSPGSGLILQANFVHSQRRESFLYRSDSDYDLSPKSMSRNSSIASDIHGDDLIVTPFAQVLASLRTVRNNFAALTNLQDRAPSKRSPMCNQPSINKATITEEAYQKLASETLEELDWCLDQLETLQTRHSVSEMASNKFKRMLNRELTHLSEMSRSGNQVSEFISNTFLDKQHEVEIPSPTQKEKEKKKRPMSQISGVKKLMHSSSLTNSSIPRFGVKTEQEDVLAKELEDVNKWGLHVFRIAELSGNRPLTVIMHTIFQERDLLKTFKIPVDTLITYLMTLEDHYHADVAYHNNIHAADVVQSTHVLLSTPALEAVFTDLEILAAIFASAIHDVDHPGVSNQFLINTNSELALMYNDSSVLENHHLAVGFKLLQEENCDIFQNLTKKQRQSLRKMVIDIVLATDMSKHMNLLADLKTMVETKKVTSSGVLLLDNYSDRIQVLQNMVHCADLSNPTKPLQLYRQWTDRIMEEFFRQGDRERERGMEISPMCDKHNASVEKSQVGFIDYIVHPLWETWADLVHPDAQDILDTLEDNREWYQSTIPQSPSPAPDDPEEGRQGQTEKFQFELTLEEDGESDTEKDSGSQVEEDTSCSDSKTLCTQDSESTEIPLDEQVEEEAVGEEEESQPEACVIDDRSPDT
Briefly: PDE4D inhibition, IMAP fluorescence polarization protocol. Type of series: biochemical. The note with it: 1 μM, mean ± SEM, 3 experiments; for inhibition at 1 µM: read-out: PDE4D3 inhibition. On the procedure: as §2, §3

The test system of series [7] is A/J mice. Briefly: LPS-induced lung inflammation and airway hyper-reactivity. Type of series: in vivo. The note with it: LASSBio-448 2.5 and 10 mg/kg oral, cilomilast 1 mg/kg oral, 1 h before LPS, 24 h post-challenge. Here is the method: A/J mice were anesthetized with isoflurane aerosol and then challenged with LPS (25μg/25 μL) or phosphate buffered solution (PBS) by intranasal instillation as reported. The analyses were performed 24 h after stimulation. Treatment with LASSBio-448 (2.5–10 mg/kg/mice) or cilomilast (1 mg/kg) was performed orally, 1 h before LPS exposure. LASSBio-448 was dissolved in 0.2% Tween 80, while cilomilast was dissolved in 1 M NaOH and further neutralized with 1 N HCl, before adjusting the final volume with 0.9% NaCl solution (saline). The substances were dissolved immediately before use.
as §1
The MPO activity present in the lung tissue was colorimetrically determined as described by Hirano (1996), with minor changes. Briefly, after lung perfusion with 20 mM EDTA in 0.9% saline, lung samples were homogenized in Hank´s balanced solution (HBSS) at pH 7.4. The homogenates were centrifuged for 10 min at 1300 xg and 4°C. Red blood cells were removed by hypotonic and hypertonic lysis and suspended cells were re-centrifuged as described above. The pellet was then suspended in HBSS at pH 7.4 containing 0.5% hexadecyltrimethyl ammonium bromide (HTAB). The homogenates were centrifuged for 30 min at 12500 xg and 4°C. The supernatants were then collected and incubated with 0.167 mg/mL of ortho-dianisidine dihydrochloride for 15 min at 37°C, after which 0.0006% H2O2 in 50 mM phosphate buffer at pH 6 was added. The reaction was stopped 10 min later by adding 50 μL of 1% sodium azide. The measurement was done at 460 nm using the SpectraMax M5 microplate reader (Molecular Devices).

The test system of series [8] is PDE3. Briefly: PDE3 activity inhibition. In kind it is biochemical.
Where [9] appears, read: rolipram 10 mg/Kg oral, right lung, 24 h after last challenge, vs vehicle, Fig 8.

T1 sequence (P27815 1-647 isoform P27815-4): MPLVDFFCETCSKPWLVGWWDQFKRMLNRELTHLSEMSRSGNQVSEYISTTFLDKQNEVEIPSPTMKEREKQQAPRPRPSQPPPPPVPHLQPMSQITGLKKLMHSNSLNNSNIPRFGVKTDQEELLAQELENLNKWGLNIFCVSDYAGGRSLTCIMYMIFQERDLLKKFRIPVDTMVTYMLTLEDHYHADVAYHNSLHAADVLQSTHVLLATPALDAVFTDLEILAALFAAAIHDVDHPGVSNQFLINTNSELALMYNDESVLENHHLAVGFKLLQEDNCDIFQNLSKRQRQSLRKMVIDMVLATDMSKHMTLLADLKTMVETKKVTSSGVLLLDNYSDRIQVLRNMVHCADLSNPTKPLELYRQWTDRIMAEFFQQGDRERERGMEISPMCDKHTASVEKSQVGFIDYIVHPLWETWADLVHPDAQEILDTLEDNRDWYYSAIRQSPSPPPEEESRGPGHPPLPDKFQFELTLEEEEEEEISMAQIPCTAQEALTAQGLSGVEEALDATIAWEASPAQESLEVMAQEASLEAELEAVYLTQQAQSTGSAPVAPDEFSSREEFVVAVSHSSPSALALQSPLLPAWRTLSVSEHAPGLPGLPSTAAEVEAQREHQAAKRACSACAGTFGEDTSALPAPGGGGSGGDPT
T2 sequence (Q07343 whole entry): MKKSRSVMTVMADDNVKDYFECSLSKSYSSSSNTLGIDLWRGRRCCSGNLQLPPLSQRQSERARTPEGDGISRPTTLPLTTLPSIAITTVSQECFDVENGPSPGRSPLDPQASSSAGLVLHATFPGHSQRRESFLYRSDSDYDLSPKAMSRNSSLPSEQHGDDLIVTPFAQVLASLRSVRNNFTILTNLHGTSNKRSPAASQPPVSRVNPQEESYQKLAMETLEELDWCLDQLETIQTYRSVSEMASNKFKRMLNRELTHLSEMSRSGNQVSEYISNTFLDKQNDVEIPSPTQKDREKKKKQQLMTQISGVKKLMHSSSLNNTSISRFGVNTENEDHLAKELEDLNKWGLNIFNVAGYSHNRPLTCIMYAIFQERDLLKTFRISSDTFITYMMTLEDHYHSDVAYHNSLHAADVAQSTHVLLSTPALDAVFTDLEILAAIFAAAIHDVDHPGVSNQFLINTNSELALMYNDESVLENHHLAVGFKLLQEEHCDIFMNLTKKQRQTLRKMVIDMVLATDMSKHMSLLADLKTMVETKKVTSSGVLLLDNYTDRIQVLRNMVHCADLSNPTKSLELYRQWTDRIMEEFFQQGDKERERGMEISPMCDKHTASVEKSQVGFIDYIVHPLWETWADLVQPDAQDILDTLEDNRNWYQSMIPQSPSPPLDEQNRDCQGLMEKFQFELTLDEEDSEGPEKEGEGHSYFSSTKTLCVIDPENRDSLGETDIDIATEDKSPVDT

As for `COc1ccc(C2CNC(=O)C2)cc1OC1CCCC1` (stereo not shown) [1 (Rolipram), rolipram, reference compound], in series [1] (rolipram 10 mg/Kg oral, Fig 7A), the “airway hyper-reactivity to methacholine, airway resistance” value is listed as “equally effective in inhibiting”. Moreover, the “airway hyper-reactivity to methacholine, lung elastance” value in series [1] (rolipram 10 mg/Kg oral, Fig 7B) was “equally effective in inhibiting”. Also, in series [1] (setting [9]), the “IL-4 level in lung tissue” value is listed as “reduction in the levels”, the “IL-5 level in lung tissue” value was “reduction in the levels”, the “IL-13 level in lung tissue” value is given as “reduction in the levels” and the “eotaxin-2 level in lung tissue” value is listed as “reduction in the levels”. Besides, the “allergen-induced eosinophil accumulation in the lung tissue (eosinophil peroxidase)” value in series [1] (rolipram 10 mg/kg oral, at third and fourth weeks of challenge, Fig 5) is listed as “impair the progress”. For the same compound, in series [2] (3.5 μmol/Kg oral), the “reduction of sleep time (duration of xylazine/ketamine anesthesia)” value was found to be 30%. The “reduction of sleep time (duration of xylazine/ketamine anesthesia)” value in series [2] (11 μmol/Kg oral) worked out at 38.5%. In addition, the “reduction of sleep time (duration of xylazine/ketamine anesthesia)” value in [2] (36 μmol/Kg oral) was 40.8%.
Compound `C=CCN(CCc1ccc(OC)c(OC)c1)S(=O)(=O)c1ccccc1` [6i (LASSBio-983), N-(3,4-dimethoxyphenethyl)-N-allylbenzenesulfonamide] displayed a melting point of 64 to 65 °C. Further, in [3], the PDE4A1A inhibition entry was “Inactive”. For the same compound, the PDE4B1 inhibition result in [4] was “Inactive”. The inhibition at 1 µM in series [5] came out at 9.7 ± 0.8%. Also, in [6], the PDE4D3 inhibition result was “only a marginal activity” and the inhibition at 1 µM was 67.6 ± 2.6%.
`COc1ccc(CCNS(C)(=O)=O)cc1OC` [6j (LASSBio-985), N-(3,4-dimethoxyphenethyl)methanesulfonamide] gave a melting point of 73 to 74 °C. The PDE4A1A inhibition entry in series [3] is recorded as “Inactive”. Also, in series [4] (read-out: PDE4B1 inhibition), the inhibition at 1 µM was found to be 12.6 ± 2.1%. In [5], this compound yielded an inhibition at 1 µM of 16.3 ± 1%. Also, in series [6], the PDE4D3 inhibition result is “only a marginal activity” and the inhibition at 1 µM came out at 62.9 ± 3.8%.
Turning to `COc1ccc(CCN(C)S(C)(=O)=O)cc1OC` [6k (LASSBio-1271), N-(3,4-dimethoxyphenethyl)-N-methylmethanesulfonamide], the melting point lay within 48 to 49 °C. The PDE4A1A inhibition result in series [3] is reported as “Inactive”. In addition, the PDE4B1 inhibition entry in series [4] is on record as “Inactive”. Besides, in series [5], the PDE4C inhibition result was “Inactive”. In addition, the PDE4D3 inhibition result in series [6] is listed as “Inactive”.
In the case of `COc1ccc([C@]2(C#N)CC[C@@H](C(=O)O)CC2)cc1OC1CCCC1` [cilomilast, reference compound], the “LPS-induced airway hyper-reactivity (lung elastance after methacholine 3–27 mg/ml)” value in series [7] (Fig 9A) is “blockade”. Further, in [7] (Fig 9B), the “neutrophil infiltration into the lung tissue (MPO activity)” value was “blockade”. Further, the “reduction of sleep time (duration of xylazine/ketamine anesthesia)” value in series [2] (5.8 μmol/kg oral, n = 5, P<0.01) stood at 28.4%.
`Cc1[nH]c(=O)c(C#N)cc1-c1ccncc1` [milrinone, reference compound] displayed an IC50 in [8] of 3.2 µM.

Usually inhibition stands for the drop in the measured response relative to a control, in per cent. As usually defined, the melting point is the temperature, or range, at which the solid turns liquid. The term IC50 denotes the midpoint of a concentration-inhibition curve. A higher IC50 goes with lower potency.
